Series [1] concerns amphetamine-induced hyperlocomotion in male Sprague-Dawley rats. Kind of series: Reversal of amphetamine-induced hyperlocomotion (rat hyperlocomotion assay). The format is in vivo. The settings on record: vehicle 20% HP-β-CD. Here is the method:
A suitable assay for determination of the in vivo effects of the disclosed compounds is the induced hyperlocomotion animal model. Briefly, locomotor activity can be assessed as mean distance traveled (cm) in standard 16×16 photocell testing chambers measuring 43.2 cm (Length)×43.2 cm (Width)×30.5 cm (Height) (Med Associates, St. Albans, Vt.). Animals are habituated to individual activity chambers for at least 30 min prior to drug administration. Following administration of drug or vehicle, activity is recorded for a 90 minute time period. Data are expressed as the mean (±SEM) distance traveled recorded in 5 min intervals over the test period. The data are analyzed using repeated measures analysis of variance (ANOVA) followed by post-hoc testing using Dunnett's test, when appropriate. A difference is considered significant when p≦0.05.
The study was carried out using male Sprague-Dawley rats weighing 225 g-275 g, between 2-3 months old (Harlan, Inc., Indianapolis, Ind.). They were kept in the animal care facility certified by the American Association for the Accreditation of Laboratory Animal Care (AALAC) under a 12-hour light/dark cycle (lights on: 6 a.m.; lights off: 6 p.m.) and had free access to food and water. The experimental protocols performed during the light cycle were approved by the Institutional Animals Care and Use Committee of Vanderbilt University and conformed to the guidelines established by the National Research Council Guide for the Care and Use of Laboratory Animals
Locomotor activity was assessed as mean distance traveled (cm) in Smart Open Field locomotor activity test chambers (Hamilton-Kinder, San Diego, Calif.) with 16×16 photobeams with chambers measuring 43.2 cm (Length)×43.2 cm (Width)×30.5 cm (Height) (Med Associates, St. Albans, Vt.). The animals were habituated for 30 min and then dosed with vehicle or test compound. The rats were then placed into cages. At 60 min, all rats were injected subcutaneously with 1 mg/kg amphetamine or vehicle and then monitored for an additional 60 min. Animals are monitored for a total of 120 minutes.
Data are expressed as the mean (±SEM) distance traveled recorded in 5 min intervals over the test period. The data was analyzed using repeated measures analysis of variance (ANOVA) followed by post-hoc testing using Dunnett's test, when appropriate. A difference was considered significant when p≦0.05. The data for the dose-response studies were analyzed by a between-group analysis of variance. If there was a main effect of dose, then each dose group was compared with the vehicle amphetamine group. The calculations were performed using JMP IN 8 (SAS Institute, Cary, N.C.) statistical software and graphed using SigmaPlot9 (Saugua, Mass.).
Amphetamine sulfate was obtained from Sigma (Cat #A5880-1G; St. Louis, Mo.) and 10 mg was dissolved in 10 ml of water. Test compound, 2-(benzyloxy)-5-[(4-fluorophenyl)carbonyl]-4,5,6,7-tetrahydropyrazolo[1,5-a]pyrazine, was formulated in a volume of 10 ml with an amount of drug appropriate to the dosage indicated. The appropriate amount of compound was mixed into a 20% 2-hydroxypropyl-β-cyclodextrin (2-HP-β-CD) solution. The solution was formulated so that animals were injected with a volume equal to […]. The mixture was then ultrahomogenized on ice for 2-3 minutes using the Dismembrator (Fisher Scientific Model 150T). Then the pH was checked using 0-14 EMD strips and adjusted to a pH of 6-7 if necessary. […]

The text below walks through data of patent US9029366B2, “Substituted bicyclic alkoxy pyrazole analogs as allosteric modulators of mGluR5 receptors” (Vanderbilt University, priority 2012, dated 2015).

Broadly, the melting point is the temperature of the solid-liquid transition.

Regarding `O=C(c1ccc(F)cc1)N1CCn2nc(OCc3ccccc3)cc2C1` [test compound, 2-(benzyloxy)-5-[(4-fluorophenyl)carbonyl]-4,5,6,7-tetrahydropyrazolo[1,5-a]pyrazine], the melting point was 187.7 °C. In addition, the “% Reversal of amphetamine-induced hyperlocomotion” value (shortened to “% Reversal”) in series [1] (3 mg/kg test compound p.o. + 1 mg/kg Amph s.c.) is on record as 14%. Besides, the “% Reversal” value in series [1] (10 mg/kg test compound p.o. + 1 mg/kg Amph s.c.) is reported as 32%. Moreover, in series [1] (30 mg/kg test compound p.o. + 1 mg/kg Amph s.c.), the “% Reversal” value is recorded as 44%. The “% Reversal” value in series [1] (56.6 mg/kg test compound p.o. + 1 mg/kg Amph s.c.) is given as 42%. The “% Reversal” value in series [1] (100 mg/kg test compound p.o. + 1 mg/kg Amph s.c.) came out at 41%.
